In patent US20230321067A1, “DOSING REGIMEN COMPRISING 3-(1-OXOISOINDOLIN-2-YL)PIPERIDINE-2,6-DIONE DERIVATIVES” (Novartis AG, priority 2020, published 2023):
Where “and” joins values, the source holds several entries; their conditions need not be identical. Identical values can stand only once. Like-named read-outs stand apart in the source and are kept apart here.

Tests used:
[1] = test system: IL2 mRNA; experiment: Upregulation of IL2 mRNA in TCR-stimulated Jurkat cells (FIG. 2B); assay type: cell-based; conditions: increasing concentrations
Procedure: FIG. 2B is a graph showing the change upregulation of IL2 mRNA in TCR-stimulated Jurkat cells after IKZF2 degradation when cells were treated with increasing concentrations of Compound I-57.

[2] = test system: IFNγ production in Teff cells; experiment: IFNγ production in Teff cells (FIG. 2D); assay type: cell-based; conditions: 2.5 nM, 25 nM and 2.5 μM vs DMSO
[3] = test system: IL-2 mRNA and soluble protein in Jurkat cells; experiment: IL-2 expression in TCR-stimulated Jurkat cells; assay type: cell-based; conditions: Homo sapiens; Jurkat cells upon TCR stimulation
Excerpt: (§1) Although the specific transcriptional targets of IKZF2 remain to be defined, IKZF2 binds to and represses transcription from the IL-2 promoter region (Baine 2013). […] Finally, an in vitro assay recapitulating hallmarks of T cell dysfunction/exhaustion, by sequential TCR stimulation of isolated primary human T cells, was used to test the hypothesis that […] would rescue the exhausted phenotype and enhance Teff cell activity. […] In addition to IKZF1, other known cereblon substrates including translation termination factor G1 to S phase transition 1 (GSPT1) are not degraded by I-57 (FIG. 1).

[4] = molecular target: T1, TMEM97 (Homo sapiens, UniProt Q5BJF2); experiment: Whole cell proteomic analysis in 293T cells: TMEM97; assay type: cell-based
T1 construct: endogenous in cells; host or cells: 293T
T1 sequence (Q5BJF2 whole entry): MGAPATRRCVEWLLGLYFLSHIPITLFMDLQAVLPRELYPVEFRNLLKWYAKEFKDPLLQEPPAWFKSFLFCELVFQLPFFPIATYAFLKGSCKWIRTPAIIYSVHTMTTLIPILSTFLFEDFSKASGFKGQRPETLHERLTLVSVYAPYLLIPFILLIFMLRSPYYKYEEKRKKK
Procedure: Other potential degradation targets of I-57 were evaluated in 293T cells using whole cell proteomic analysis. […] Subsequent analyses have confirmed that FIZ1 is degraded by about 50% at a 10 μM concentration of I-57 ([I-57 Investigator's Brochure]). […] FIZ1 is expressed in the neural retina where it transcriptionally represses the differentiation of photoreceptors. FIZ1 is also expressed in non-ocular tissues with unknown function.

[5] = Repeated daily oral dose PK in cynomolgus monkey; assay type: in vivo; conditions: unbound; for Cmax / AUC(0-t): plasma, po; for AUC(0-t): read-out: AUC0-24
Procedure: The PK/PD relationship of I-57 was further examined in cynomolgus monkeys after repeated daily oral doses of 0.1 and 3 mg/kg. In this study, a cohort of animals were initially immunized with an antigen-adjuvant mixture (KLH/Squalene). The experiment was designed to assess the effect of I-57 exposure, and the resulting IKZF2 degradation, on immune response during immunization to test the hypothesis that IKZF2 degradation would result in increased proliferation of stimulated T-cells. In the experiment, daily I-57 oral treatment was initiated 5 days after immunization. An immunization booster dose was administered on day 15. I-57 plasma concentration and IKZF2 expression (as determined by flow cytometry) in FOXP3+ T cells from PBMCs were determined (FIG. 9A and FIG. 9B).

[6] = In vivo non-clinical PK, dog
Procedure: (§2) The in vivo non-clinical PK profile of I-57 was investigated in mouse, rat, dog and cynomolgus monkey using I-57 free base. […] After p.o. administration, the absorption of I-57 was rapid with peak blood concentration (Tmax) occurring between 1 and 4 hours. […] In high dose PK and toxicology studies with I-57 the exposures in mouse, rat and monkey increased with dose.
The binding to plasma protein of I-57 in vitro was moderate in all species, with an observed difference between rodents (73% in mouse, 76% in rat) and non-rodents (52% in dog and monkey, 54% in human). Blood-to-plasma ratios were in the range of 0.7-1.8 (human 1.1-1.3). […] Based on results with non-radiolabeled I-57 in the dog, a significant amount of unchanged I-57 was renally eliminated (˜20% of dose).

[7] = In vivo non-clinical PK, monkey; set-up: species or system cynomolgus monkey
Procedure: as §2

[8] = test system: CYP3A; experiment: CYP inhibition: CYP3A; assay type: in vitro ADME; conditions: I-57 concentrations of up to 100 μM
[9] = molecular target: CYP2D6 (Homo sapiens, UniProt P10635); experiment: Time-dependent CYP inhibition: CYP2D6; assay type: in vitro ADME; conditions: I-57 concentrations of up to 100 μM
Sequence of CYP2D6 (P10635 whole entry): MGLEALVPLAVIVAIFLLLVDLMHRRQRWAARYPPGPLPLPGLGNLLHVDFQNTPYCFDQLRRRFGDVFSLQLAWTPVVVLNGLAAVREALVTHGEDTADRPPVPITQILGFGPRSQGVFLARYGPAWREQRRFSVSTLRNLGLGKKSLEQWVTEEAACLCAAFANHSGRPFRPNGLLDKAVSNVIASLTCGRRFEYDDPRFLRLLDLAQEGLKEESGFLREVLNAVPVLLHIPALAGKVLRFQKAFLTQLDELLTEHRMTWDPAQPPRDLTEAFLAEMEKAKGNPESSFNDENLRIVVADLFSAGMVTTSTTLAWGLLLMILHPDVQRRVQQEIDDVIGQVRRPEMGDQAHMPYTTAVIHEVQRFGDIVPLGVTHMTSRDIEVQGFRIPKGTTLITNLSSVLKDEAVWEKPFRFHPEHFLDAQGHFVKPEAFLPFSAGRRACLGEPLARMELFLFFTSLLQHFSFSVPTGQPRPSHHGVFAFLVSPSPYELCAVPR

[10] = molecular target: PXR (Homo sapiens, UniProt O75469); experiment: PXR reporter gene assay (CYP3A induction potential); assay type: cell-based
Sequence of PXR (O75469 whole entry): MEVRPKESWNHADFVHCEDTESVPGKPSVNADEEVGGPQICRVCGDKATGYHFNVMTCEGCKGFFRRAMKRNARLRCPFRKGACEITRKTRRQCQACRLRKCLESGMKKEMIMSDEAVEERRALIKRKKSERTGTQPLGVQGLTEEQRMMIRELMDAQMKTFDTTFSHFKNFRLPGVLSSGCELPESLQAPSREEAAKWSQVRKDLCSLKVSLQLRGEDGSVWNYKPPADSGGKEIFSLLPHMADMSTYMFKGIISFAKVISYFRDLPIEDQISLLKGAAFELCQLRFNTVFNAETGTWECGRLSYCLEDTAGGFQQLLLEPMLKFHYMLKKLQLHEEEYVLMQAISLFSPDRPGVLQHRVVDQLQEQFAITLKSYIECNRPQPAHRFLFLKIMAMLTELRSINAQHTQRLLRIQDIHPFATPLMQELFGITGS
Excerpt: Based on a PXR reporter gene assay, I-57's induction potential for CYP3A appears to be low.

[11] = ECG (QTc) in monkeys, single dose and 4-week GLP repeat dose study; assay type: in vivo, monkey
Procedure: The risk of possible QTc interval prolongation at the starting dose is therefore considered low. QT prolongation may become clinically significant during escalation but are not anticipated to be dose limiting until doses at or above 640 mg. Monitoring and other measures to mitigate potential risk of arrhythmia is addressed in Example 3 below.

[12] = Phototoxic potential
[13] = molecular target: T2, IKZF2 (Homo sapiens, UniProt Q96SW2+Q9UKS7); experiment: Degradation of IKZF2 in primary PBMCs, human (FIG. 3); assay type: cell-based; set-up: endogenous in cells; host or cells: primary human PBMCs
T2 sequence (Q9UKS7 whole entry): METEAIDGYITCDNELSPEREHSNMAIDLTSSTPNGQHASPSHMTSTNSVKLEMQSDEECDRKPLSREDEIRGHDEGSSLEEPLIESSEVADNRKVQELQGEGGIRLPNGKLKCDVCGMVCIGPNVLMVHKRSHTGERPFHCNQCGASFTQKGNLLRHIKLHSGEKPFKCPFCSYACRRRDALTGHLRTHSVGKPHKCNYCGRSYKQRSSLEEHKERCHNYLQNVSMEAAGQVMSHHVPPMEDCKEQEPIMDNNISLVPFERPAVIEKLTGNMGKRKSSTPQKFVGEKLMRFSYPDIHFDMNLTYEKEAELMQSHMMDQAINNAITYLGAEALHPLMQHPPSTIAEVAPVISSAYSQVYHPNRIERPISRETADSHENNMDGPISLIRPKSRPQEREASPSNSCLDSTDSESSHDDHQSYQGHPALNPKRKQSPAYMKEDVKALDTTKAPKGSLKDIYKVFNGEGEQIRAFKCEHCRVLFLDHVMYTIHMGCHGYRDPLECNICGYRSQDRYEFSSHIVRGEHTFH
T2 sequence (Q96SW2 whole entry): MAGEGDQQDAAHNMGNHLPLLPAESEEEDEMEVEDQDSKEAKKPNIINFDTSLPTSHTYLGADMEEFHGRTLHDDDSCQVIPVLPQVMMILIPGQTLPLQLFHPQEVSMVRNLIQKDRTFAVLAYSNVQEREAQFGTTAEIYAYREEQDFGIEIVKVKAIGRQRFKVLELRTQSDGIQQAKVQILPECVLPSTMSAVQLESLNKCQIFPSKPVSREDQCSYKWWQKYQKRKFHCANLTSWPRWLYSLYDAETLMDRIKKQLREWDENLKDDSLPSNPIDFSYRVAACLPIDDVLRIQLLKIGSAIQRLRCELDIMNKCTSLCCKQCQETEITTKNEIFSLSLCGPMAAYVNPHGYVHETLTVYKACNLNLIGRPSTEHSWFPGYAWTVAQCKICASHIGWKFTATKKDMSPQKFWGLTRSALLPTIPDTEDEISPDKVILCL
T2 sequence (Q16531 whole entry partner): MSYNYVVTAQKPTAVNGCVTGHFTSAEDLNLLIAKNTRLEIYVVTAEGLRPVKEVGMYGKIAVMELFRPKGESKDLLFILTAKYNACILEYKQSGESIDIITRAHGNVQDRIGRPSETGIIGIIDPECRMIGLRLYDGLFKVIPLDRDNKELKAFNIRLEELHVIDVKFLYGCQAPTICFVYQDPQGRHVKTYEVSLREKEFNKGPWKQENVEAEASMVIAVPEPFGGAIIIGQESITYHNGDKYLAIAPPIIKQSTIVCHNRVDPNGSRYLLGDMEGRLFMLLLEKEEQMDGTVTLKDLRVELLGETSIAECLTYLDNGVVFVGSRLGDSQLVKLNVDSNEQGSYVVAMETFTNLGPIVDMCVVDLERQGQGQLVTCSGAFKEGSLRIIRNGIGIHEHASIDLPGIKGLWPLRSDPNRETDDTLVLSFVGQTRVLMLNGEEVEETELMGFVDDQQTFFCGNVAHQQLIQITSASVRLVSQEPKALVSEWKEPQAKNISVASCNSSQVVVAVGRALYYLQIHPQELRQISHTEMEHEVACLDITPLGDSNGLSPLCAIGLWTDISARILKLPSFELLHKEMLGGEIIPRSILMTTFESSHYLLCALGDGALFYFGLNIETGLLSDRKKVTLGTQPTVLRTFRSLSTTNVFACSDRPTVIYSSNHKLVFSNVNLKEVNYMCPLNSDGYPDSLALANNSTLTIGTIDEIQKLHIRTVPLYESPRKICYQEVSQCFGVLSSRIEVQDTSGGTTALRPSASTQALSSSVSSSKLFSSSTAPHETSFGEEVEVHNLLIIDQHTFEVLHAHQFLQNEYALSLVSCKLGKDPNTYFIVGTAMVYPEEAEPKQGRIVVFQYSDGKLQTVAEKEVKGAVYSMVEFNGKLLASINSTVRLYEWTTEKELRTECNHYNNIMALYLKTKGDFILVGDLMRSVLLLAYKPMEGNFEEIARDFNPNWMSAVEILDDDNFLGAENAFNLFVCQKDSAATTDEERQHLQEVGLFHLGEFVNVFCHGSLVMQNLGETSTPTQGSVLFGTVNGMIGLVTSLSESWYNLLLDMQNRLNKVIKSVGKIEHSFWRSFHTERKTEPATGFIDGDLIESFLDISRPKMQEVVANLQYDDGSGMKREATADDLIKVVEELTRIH
Excerpt: FIG. 3. is a bar graph showing the degradation of IKZF2 in primary PBMCs obtained from rabbit, dog, pig, cynomolgus monkey and human, and in primary splenocytes of mouse and rat and treated with Compound I-57.

[14] = molecular target: T2, IKZF2; experiment: IKZF2 degradation in vitro (FIG. 1); assay type: cell-based; set-up: prolabel (ProLabel enzyme-fragment tag); expressed in transfected cells; host or cells: HEK293T
Excerpt: as §1

[15] = 0.1 mg/kg/day, Day 5, Group 2 (only I-57), 0.1 mg/kg/day oral
[16] = 0.1 mg/kg/day, Day 5, Group 4 (I-57 + KLH + adjuvant), 0.1 mg/kg/day oral
[17] = 0.1 mg/kg/day, Day 29, Group 2 (only I-57), 0.1 mg/kg/day oral
[18] = 0.1 mg/kg/day, Day 29, Group 4 (I-57 + KLH + adjuvant), 0.1 mg/kg/day oral
[19] = 3 mg/kg/day, Day 5, Group 5 (I-57 + KLH + adjuvant), 3 mg/kg/day oral
[20] = 3 mg/kg/day, Day 29, Group 5 (I-57 + KLH + adjuvant), 3 mg/kg/day oral
[21] = Day 5, Group 2 (only I-57), 0.1 mg/kg/day oral
[22] = Day 5, Group 4 (I-57 + KLH + adjuvant), 0.1 mg/kg/day oral
[23] = Day 5, Group 5 (I-57 + KLH + adjuvant), 3 mg/kg/day oral
[24] = Day 29, Group 2 (only I-57), 0.1 mg/kg/day oral
[25] = Day 29, Group 4 (I-57 + KLH + adjuvant), 0.1 mg/kg/day oral
[26] = Day 29, Group 5 (I-57 + KLH + adjuvant), 3 mg/kg/day oral

O=C1CCC(N2Cc3cc(C4CCN(Cc5ccccc5)CC4)ccc3C2=O)C(=O)N1 (centres unmarked) [Compound I-57, 3-(5-(1-benzylpiperidin-4-yl)-1-oxoisoindolin-2-yl)piperidine-2,6-dione]
IL-2 mRNA expression [1]: expressed more IL-2 mRNA in a dose-dependent manner | IFNγ production by IKZF2+ cells [2]: concomitant increase in IFNγ production | AC50 [3]: ~4 nM and ~0.0017 µg/mL | degradation of TMEM97 [4]: degraded | Cmax [5, 15]: 7.1 ng/mL | AUC(0-t) [5, 15]: 56.8 ng·h/mL | Cmax [5, 16]: 11 ng/mL | AUC(0-t) [5, 16]: 63.5 ng·h/mL | Cmax [5, 17]: 13.1 ng/mL | AUC(0-t) [5, 17]: 78.1 ng·h/mL | Cmax [5, 18]: 18 ng/mL | AUC(0-t) [5, 18]: 96.4 ng·h/mL | Cmax [5, 19]: 523 ng/mL | AUC(0-t) [5, 19]: 2840 ng·h/mL | Cmax [5, 20]: 504 ng/mL | AUC(0-t) [5, 20]: 3460 ng·h/mL | AUC0-24/D [5, 21]: 567 (ng · h/mL)/(mg/kg) | Cmax/D [5, 21]: 71.0 (ng/mL)/(mg/kg) | AUC0-24/D [5, 22]: 634 (ng · h/mL)/(mg/kg) | Cmax/D [5, 22]: 110 (ng/mL)/(mg/kg) | AUC0-24/D [5, 23]: 946 (ng · h/mL)/(mg/kg) | Cmax/D [5, 23]: 175 (ng/mL)/(mg/kg) | AUC0-24/D [5, 24]: 782 (ng · h/mL)/(mg/kg) | Cmax/D [5, 24]: 131 (ng/mL)/(mg/kg) | AUC0-24/D [5, 25]: 965 (ng · h/mL)/(mg/kg) | Cmax/D [5, 25]: 180 (ng/mL)/(mg/kg) | AUC0-24/D [5, 26]: 1150 (ng · h/mL)/(mg/kg) | Cmax/D [5, 26]: 169 (ng/mL)/(mg/kg) | bioavailability ([6]; blood, po): 91% | unchanged I-57 renally eliminated ([6]; non-radiolabeled I-57): ~20 % of dose | dose proportionality of AUC ([7]; above 100 mg/kg): less than dose proportional | dose proportionality of AUC ([7]; between 10 mg/kg and 100 mg/kg): slightly over-proportional | bioavailability ([7]; cynomolgus monkey, blood, po): 89% | inhibition of CYP3A [8]: very little and no inhibition | time-dependent inhibition of CYP2D6 [9]: no apparent time-dependent inhibition | induction potential for CYP3A [10]: low | cardiac electrical instability or wave abnormality [11]: No cardiac electrical instability or wave abnormality was observed | QT effects ([11]; 3 mg/kg): no QT effects were noted | free Cmax in monkeys at 3 mg/kg relative to free Cmax predicted at the clinical starting dose of 20 mg ([11]; 3 mg/kg): ~8.4 times | time of highest magnitude of the QTc effect ([11]; coinciding with Tmax): 0.5 to 5.5 h | increase in QTc interval ([11]; doses >10 mg/kg, single dose and 4-week GLP repeat dose study): at least 30 mSec | phototoxic potential [12]: no genotoxic or phototoxic potential | degradation of IKZF2 [13]: degradation was observed | degradation of IKZF2 [14]: potent and selective degrader of IKZF2
